Assay results: publication PMC11683478, “Bioprospecting of culturable marine biofilm bacteria for novel antimicrobial peptides” (iMeta, 2024)
Where no end group is shown, it is not given here.

Columns and labels:
[1] = system: Acinetobacter baumannii ATCC 19606; assay: Antibacterial screen at 200 μg/mL (cell density vs control); type: cell-based; details: peptide 200 μg/mL, CAMHB, 5 × 10^5 CFU/mL, 37°C, 12 h, OD600; control (no AMP) = 1; three biological replicates
Description: (§1) Eight bacterial strains were utilized in the antibacterial experiment. S. aureus ATCC 12600, B. subtilis ATCC 23857, E. coli ATCC 11775, and A. baumannii ATCC 19606 were purchased from Shanghai Beinuo Biology. M. luteus ATCC 4698 and S. bongori ATCC43975 were purchased from Shanghai Beisi Biotechnology. V. owensii ems001 and V. alginolyticus xv22 from the intestines of diseased shrimps were isolated in our laboratory. All strains were cultured in the cation‐adjusted Mueller‐Hinton broth (CAMHB) at 37°C to the logarithmic growth phase (OD600 = 0.5). Then, bacteria were gradient‐diluted using fresh CAMHB to a bacterial density of 5 × 10^5 CFU/mL. Antibacterial experiments were performed in a 96‐well plate with 200 μg/mL final peptide concentration. Four experimental groups were set up, including a blank control (200 μL CAMHB), a negative control (180 μL CAMHB plus 20 μL peptide), a positive control (180 μL bacterial culture plus 20 μL ultrapure water), and an experimental group (180 μL bacterial culture plus 20 μL peptide). Three biological replicates were conducted for each group, and OD600 values were measured after incubation at 37°C for 12 h. Every observed value was removed from the blank control group value. The value of the experimental group was then subtracted from the value of the negative control group therefore eradicating the effect of the peptide on the OD measurement. Student's t‐test allowed the estimation of a notable variation between the experimental and positive groups using a p‐value of 0.05 as the limit. […] The MIC of a peptide against a bacterium was determined as the minimum peptide concentration at which there was no visible bacterial growth.

[2] = system: Bacillus subtilis ATCC 23857; assay: as above; type: cell-based; details: peptide 200 μg/mL, CAMHB, 5 × 10^5 CFU/mL, 37°C, 12 h, OD600; control (no AMP) = 1; three biological replicates
Description: as §1

[3] = system: Escherichia coli ATCC 11775; assay: as above; type: cell-based; details: peptide 200 μg/mL, CAMHB, 5 × 10^5 CFU/mL, 37°C, 12 h, OD600; control (no AMP) = 1; three biological replicates
Description: as §1

[4] = system: Micrococcus luteus ATCC 4698; assay: as above; type: cell-based; details: peptide 200 μg/mL, CAMHB, 5 × 10^5 CFU/mL, 37°C, 12 h, OD600; control (no AMP) = 1; three biological replicates
Description: as §1

[5] = system: Salmonella bongori ATCC 43975; assay: as above; type: cell-based; details: peptide 200 μg/mL, CAMHB, 5 × 10^5 CFU/mL, 37°C, 12 h, OD600; control (no AMP) = 1; three biological replicates
Description: as §1

[6] = system: Staphylococcus aureus ATCC 12600; assay: as above; type: cell-based; details: peptide 200 μg/mL, CAMHB, 5 × 10^5 CFU/mL, 37°C, 12 h, OD600; control (no AMP) = 1; three biological replicates
Description: as §1

[7] = system: Vibrio alginolyticus xv22; assay: as above; type: cell-based; details: peptide 200 μg/mL, CAMHB, 5 × 10^5 CFU/mL, 37°C, 12 h, OD600; control (no AMP) = 1; three biological replicates
Description: as §1

[8] = system: Vibrio owensii ems001; assay: as above; type: cell-based; details: peptide 200 μg/mL, CAMHB, 5 × 10^5 CFU/mL, 37°C, 12 h, OD600; control (no AMP) = 1; three biological replicates
Description: as §1

[9] = system: sheep red blood cells; details: red cells of sheep, 1 h
Description: Freshly collected sheep blood was centrifuged at 3000 rpm for 10 min, and the supernatant was removed. The pellet was washed and resuspended with normal saline water to produce a 2% blood cell solution. Then, 400 μL of peptide solution was added to 100 μL of 2% blood cell solution to achieve final peptide concentrations of 8, 16, 32, 64, and 128 μg/mL. Normal saline water and Triton X‐100 normal saline solution (2%) were used as negative and positive controls, respectively. The samples were incubated in a water bath at 37°C for 1 h, followed by centrifugation at 3000 rpm for 10 min. Then, 200 μL of the supernatant was transferred to a 96‐well plate, and OD values were measured at a wavelength of 545 nm. The hemolysis rate of each sample was calculated using the following formula: Hemolysis ratio=OD545(experimental)−OD545(negative control)/OD545(positive control)−OD545(negative control)×100%.

Row | Sequence | cell density relative to control, A. baumannii ATCC 19606 [1] | cell density relative to control, B. subtilis ATCC 23857 [2] | cell density relative to control, E. coli ATCC 11775 [3] | cell density relative to control, M. luteus ATCC 4698 [4] | cell density relative to control, S. bongori ATCC 43975 [5] | cell density relative to control, S. aureus ATCC 12600 [6] | cell density relative to control, V. alginolyticus xv22 [7] | cell density relative to control, V. owensii ems001 [8] | Hemolysis ratio (%) at 8μg/mL [9] | Hemolysis ratio (%) at 16μg/mL [9] | Hemolysis ratio (%) at 32μg/mL [9] | Hemolysis ratio (%) at 64μg/mL [9] | Hemolysis ratio (%) at 128μg/mL [9]
1 | MRPCMCRIGGGH [Cand-13, chemically synthesized candidate AMP predicted from marine biofilm bacteria] | 0.816 | 1 | 1 | 1 | 0.926 | 0.795 | 0.942 | 1 |  |  |  |  | 
2 | MFKFFCCIFYMCRIKTH [Cand-18, chemically synthesized candidate AMP predicted from marine biofilm bacteria] | 0.014 | 0 | 0.004 | 0 | 0.031 | 0 | 0 | 0.007 |  |  |  |  | 
3 | MRRFCCCRCSCCCWPS [Cand-25, chemically synthesized candidate AMP predicted from marine biofilm bacteria] | 1 | 1 | 0.835 | 1 | 0.847 | 0.422 | 1 | 0.067 |  |  |  |  | 
4 | MSKIKAKIGHLR [Cand-98, chemically synthesized candidate AMP predicted from marine biofilm bacteria] | 0.74 | 1 | 0.765 | 1 | 1 | 0.721 | 1 | 1 |  |  |  |  | 
5 | MWKLPKWRNGRRRGFKIPRW [Cand-109, chemically synthesized candidate AMP predicted from marine biofilm bacteria] | 0.01 | 0.012 | 0.002 | 0.02 | 0.019 | 0 | 0.019 | 0.039 |  |  |  |  | 
6 | MRKGCKLIPCICDVNCRRRTG [Cand-8, chemically synthesized candidate AMP predicted from marine biofilm bacteria] | 0.201 | 0.257 | 0 | 0 | 0 | 0.364 | 0.286 | 0.653 |  |  |  |  | 
7 | MPKRPWRACSSIG [Cand-212, chemically synthesized candidate AMP predicted from marine biofilm bacteria] | 0.835 | 1 | 1 | 1 | 0.839 | 0.896 | 1 | 1 |  |  |  |  | 
8 | MRVGMCRIGGRL [Cand-79, chemically synthesized candidate AMP predicted from marine biofilm bacteria] | 0.975 | 0.837 | 0.73 | 1 | 0.975 | 0.728 | 0.8 | 1 |  |  |  |  | 
9 | MRPKKWLKKPKPRPKKWPTK [Cand-210] |  |  |  |  |  |  |  |  | 0.520% | 0.079% | 0.689% | 1.792% | 
10 | MWIRLTKRLRKSRSNR [Cand-214] |  |  |  |  |  |  |  |  | 1.812% | 2.604% | 3.258% | 3.738% | 
11 | MSPCLKGVIRSAVKSLHR [Cand-53] |  |  |  |  |  |  |  |  | 2.990% | 2.497% | 3.703% | 3.585% | 
12 | MLTWLKKLQPYLISMMR [Cand-44] |  |  |  |  |  |  |  |  | 3.540% | 1.775% | 3.660% | 5.713% | 19.067%
13 | MSPIRAWRRLRSC [Cand-144] |  |  |  |  |  |  |  |  | 1.328% | 1.615% | 1.536% | 3.230% | 10.013%
14 | MWPLSKLWPSCFRKTT [Cand-5] |  |  |  |  |  |  |  |  | 2.350% | 1.575% | 0.874% | 7.118% | 
